From patent publication US9845297B2, “Antimicrobial compounds and methods of making and using the same” (Melinta Therapeutics, Inc., priority 2009, dated 2017)

test system: Eschericia coli strain ATCC25922; assay: standard microdilution assay to determine minimum inhibitory concentrations (MICs); type: cell-based; conditions: Escherichia coli, ATCC25922, Eschericia coli strain ATCC25922, standard microdilution assay; read-out: E. coli ATCC25922 MIC
In short: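 Broth microdilution per CLSI protocols, typically 100 µL final volume, against E. coli ATCC25922. MIC values scored as +/− against a cutoff of 16 micrograms/ml.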

Compound	MIC
NCCCNCc1ccc(-c2c[nH]c(NC(=O)NCCc3nc4ccccc4[nH]3)nc2=O)cc1F [Compound 555]	> 16 µg/mL
NCCCNCc1ccc(-c2c[nH]c(NC(=O)NCc3nc4ccccc4[nH]3)nc2=O)cc1F [Compound 556]	> 16 µg/mL
N=C(Nc1ccccc1)Nc1nc(=O)c(-c2ccc(CNCCCN)c(F)c2)c[nH]1 [Compound 573]	> 16 µg/mL
NCCCNCc1ccc(-c2c[nH]c(NC(=O)NCCCc3cc(F)c(F)cc3F)nc2=O)cc1F [Compound 574]	> 16 µg/mL
N=C(N)NCCCNCc1ccc(-c2c[nH]c(NC(=O)NCCCc3cc(F)c(F)cc3F)nc2=O)cc1F [Compound 582]	> 16 µg/mL
N=C(N)NCCCCCN1CCC(c2c[nH]c(NC(=O)Nc3cccc(Cl)c3F)nc2=O)CC1 [Compound 583]	> 16 µg/mL
N=C(N)NCCCCCN1CCC(c2c[nH]c(NC(=O)Nc3ccccc3OC(F)(F)F)nc2=O)CC1 [Compound 584]	> 16 µg/mL
N=C(N)NCCCNCc1ccc(-c2c[nH]c(NC(=O)Nc3cc(F)c(F)cc3F)nc2=O)cn1 [Compound 585]	> 16 µg/mL
NCCCNCc1ccc(-c2c[nH]c(Nc3nc4ccccc4o3)nc2=O)cc1F [Compound 588]	< 16 µg/mL
COc1nc(Nc2nc3ccccc3o2)ncc1-c1ccc(CNCCCN)c(F)c1 [Compound 589]	> 16 µg/mL
N=C(N)NCCCNCc1ccc(-c2c[nH]c(NC(=O)Nc3cccc(Cl)c3F)nc2=O)cn1 [Compound 593]	< 16 µg/mL
N=C(N)NCCCNCc1ccc(-c2c[nH]c(NC(=O)Nc3ccccc3OC(F)(F)F)nc2=O)cn1 [Compound 594]	< 16 µg/mL
NCCCCNC1CCN(c2c[nH]c(NC(=O)Nc3ccccc3OC(F)(F)F)nc2=O)CC1 [Compound 599]	> 16 µg/mL
N=C(N)NCCCCNC1CCN(c2c[nH]c(NC(=O)Nc3ccccc3OC(F)(F)F)nc2=O)CC1 [Compound 605]	> 16 µg/mL
NCCCNCc1ccc(-c2c[nH]c(NCCc3nc4cc(F)c(F)cc4[nH]3)nc2=O)cc1F [Compound 607]	> 16 µg/mL
NCCCNCc1ccc(-c2c[nH]c(NCCc3nc4cc(F)c(F)cc4o3)nc2=O)cc1F [Compound 608]	> 16 µg/mL
NCCCCNC1CCN(c2c[nH]c(NC(=O)Nc3cc(F)c(F)cc3F)nc2=O)CC1 [Compound 619]	> 16 µg/mL
N=C(N)NCCCNCc1ccc(-c2c[nH]c(NC(=O)NC3CCN(Cc4cc(F)c(F)cc4F)CC3)nc2=O)cc1 [Compound 652]	> 16 µg/mL
N=C(N)NCCCN(CCC1CC1)Cc1ccc(-c2c[nH]c(NC(=O)Nc3cc(F)c(F)cc3F)nc2=O)cc1 [Compound 680]	> 16 µg/mL

Compound	MIC
NCCCNCc1ccc(-c2c[nH]c(NC(=O)NC3CN(Cc4cc(F)c(F)cc4F)C3)nc2=O)cc1 [Compound 710]	> 16 µg/mL
N=C(N)NCCCNCc1ccc(-c2c[nH]c(NC(=O)NC3CN(Cc4cc(F)c(F)cc4F)C3)nc2=O)cc1 [Compound 712]	> 16 µg/mL
N=C(N)NCCCNCc1ccc(-c2c[nH]c(NC(=O)NC3CCN(Cc4cc(F)c(F)cc4F)C3)nc2=O)cc1 (centres unmarked) [Compound 735]	> 16 µg/mL
N=C(N)NCCCNCc1ccc(-c2c[nH]c(NC(=O)NCCOc3cc(F)c(F)cc3F)nc2=O)cc1 [Compound 739]	> 16 µg/mL
N=C(N)NCCCNCc1ccc(-c2c[nH]c(NC(=O)NC3CN(C(=O)Nc4cc(F)c(F)cc4F)C3)nc2=O)cc1 [Compound 747]	< 16 µg/mL
N=C(N)NCCCNCc1ccc(-c2c[nH]c(NC(=O)NC3CN(S(=O)(=O)c4cc(F)cc(F)c4F)C3)nc2=O)cc1 [Compound 779]	> 16 µg/mL
N=C(N)NCCCNCc1ccc(-c2c[nH]c(NC(=O)NC3CN(C(=O)c4cc(F)cc(F)c4F)C3)nc2=O)cc1 [Compound 780]	> 16 µg/mL
CN(C)CCCOc1ccccc1NC(=O)Nc1nc(=O)c(-c2ccc(CNCCCN)cc2)c[nH]1 [Compound 1291]	> 16 µg/mL
NCCCNCc1ccc(-c2c[nH]c(NC(=O)Nc3ccccc3OCCCO)nc2=O)cc1 [Compound 1294]	> 16 µg/mL
NCCCNCc1ccc(-c2c[nH]c(NC(=O)Nc3ccccc3OCCNC(N)=O)nc2=O)cc1 [Compound 1295]	> 16 µg/mL
NCCCNCc1ccc(-c2c[nH]c(NC(=O)Nc3ccccc3OCCCN)nc2=O)cc1 [Compound 1296]	> 16 µg/mL
NCCCNCc1ccc(-c2c[nH]c(NC(=O)Nc3ccccc3OCCCC(=O)O)nc2=O)cc1 [Compound 1297]	> 16 µg/mL
CCN[C@@H]1CCCCC1NC(=O)Nc1nc(=O)c(-c2ccc(CN)cc2)c[nH]1 (some centres unmarked) [Compound 1302]	> 16 µg/mL
NCCCN1CCC[C@H](NC(=O)Nc2nc(=O)c(-c3ccc(CN)cc3)c[nH]2)C1 [Compound 1303]	> 16 µg/mL
NCCCN1CCC[C@@H](NC(=O)Nc2nc(=O)c(-c3ccc(CN)cc3)c[nH]2)C1 [Compound 1304]	> 16 µg/mL
NCc1ccc(-n2ccc(NC(=O)NC3CCCNC3)nc2=O)cc1 (centres unmarked) [Compound 1305]	> 16 µg/mL
NCc1ccc(-c2c[nH]c(NC(=O)NC3CCCN(CCO)C3)nc2=O)cc1 (centres unmarked) [Compound 1317]	> 16 µg/mL
NCCCN[C@@H]1CCCCC1NC(=O)Nc1nc(=O)c(-c2ccc(CN)cc2)c[nH]1 (some centres unmarked) [Compound 1338]	> 16 µg/mL
NCc1ccc(-c2c[nH]c(NC(=O)NC3CCCC[C@H]3NCC(F)(F)F)nc2=O)cc1 (some centres unmarked) [Compound 1357]	> 16 µg/mL
